The values below are quoted from earlier work in patent US6613768B1, “Treatment of female arousal disorder” (Lilly ICOS LLC, priority 1999, dated 2003).

Structures are written as SMILES. Counter-ions that a name gives are not always drawn.

This series has as its system postmenopausal women with sexual dysfunction.

Turning to `CCCc1nn(C)c2c(=O)[nH]c(-c3cc(S(=O)(=O)N4CCN(C)CC4)ccc3OCC)nc12` [sildenafil, Sildenafil citrate], for the setting “of the 7 women affected”, the “women with clitoral discomfort/hypersensitivity who withdrew from the study” value was 3. Also, for the setting “thirty-three postmenopausal women”, the “clitoral discomfort and hypersensitivity, number of women” value is 7 woman.
